These compounds were tested on HIV-1 (H9IIIB strain) (assay: Cell-Based HIV Infection Assay Using a Reporter (MT4-GFP cells)). Conditions: Human immunodeficiency virus 1, inflection point (IP) of viral growth inhibition; MT4-GFP cells infected with HIV-1 H9IIIB; 50% normal human serum; mean of at least two independent experiments; read-out: Cell Based IP (50% NHS).
Experimental: Cell-Based HIV Infection Assay Using a Reporter (“Cell-Based”):
MT4-GFP cells contain a stably integrated HIV long terminal repeat promoter directing the transcription of green fluorescent protein (GFP). When HIV infects the cell, GFP is produced and the cell becomes green. MT4-GFP cells (250,000 cells/mL) were bulk-infected with HIV-1 (H9IIIB strain) at low multiplicity of infection (MOI) in RPM 1640 media, supplemented with 10% FBS for 24 h. Cells were then washed once in RPMI 1640 plus 10% FBS and resuspended in RPMI plus 50% normal human serum (NHS). Test compounds were serial-diluted in DMSO using an ECHO liquid dispenser. A control well included a combination of three HIV drugs (an inhibitor of HIV protease, integrase strand transfer and a non-nucleoside reverse transcriptase inhibitor; triple drug). The infected MT4-GFP cells were added to a 384-well poly-D-lysine coated black plate with clear bottom in which the diluted test compounds were placed. The cells were seeded in the plate at 8,000 cells per well and the final DMSO concentration was 0.4%. Infected cells were quantified at both 24 and 48 h post incubation using an Acumen eX3 plate reader. Viral reproductive ratio (R0) was determined using the number of infected cells at 48 h divided by the number of infected cells at 24 h. Percent viral growth inhibition was calculated by [1−(R−Rtripledrug)/(RDMSO−Rtripledrug)]*100. Compound potency inflection point (IP) was determined with use of a 4-parameter dose response curve analysis.
Data shown in the table reflects the mean of at least two independent experiments.

Compound	EC50 [nM]
COC(=O)N[C@H](C(=O)Nc1ccc(F)c(F)c1CC[C@H]1CN[C@@H]2CCCS(=O)(=O)N1C2)[C@@H](c1ccc(F)cc1)C1C[C@@H](C)O[C@@H](C)C1 (stereo partly drawn) [Example 228, Methyl [(1S,2R)-2-[(2R,6S)-2,6-dimethyltetrahydro-2H-pyran-4-yl]-1-[(2-{2-[(6R,9S)-2,2-dioxido-2-thia-1,7-diazabicyclo[4.3.1]dec-9-yl]ethyl}-3,4-difluorophenyl)carbamoyl]-2-(4-fluorophenyl)ethyl]carbamate]	10
COC(=O)N[C@H](C(=O)Nc1cccc(F)c1CCC1CNC2CCCS(=O)(=O)N1C2)[C@@H](c1ccc(F)cc1)c1ccc(C2CC2)cc1 (stereo partly drawn) [Example 60, methyl [(1S,2R)-2-(4-cyclopropylphenyl)-1-({2-[2-(2,2-dioxido-2-thia-1,7-diazabicyclo[4.3.1]dec-9-yl)ethyl]-3-fluorophenyl}carbamoyl)-2-(4-fluorophenyl)ethyl]carbamate]	9.9
CC1(C)CC([C@H](c2ccc(F)cc2)[C@H](N)C(=O)Nc2ccc(F)c(F)c2CC[C@H]2CN[C@@H]3CCCS(=O)(=O)N2C3)CCO1 (stereo partly drawn) [Example 179, (βR)-β-(2,2-dimethyltetrahydro-2H-pyran-4-yl)-N-(2-{2-[(6R,9S)-2,2-dioxido-2-thia-1,7-diazabicyclo[4.3.1]dec-9-yl]ethyl}-3,4-difluorophenyl)-4-fluoro-L-phenylalaninamide]	31
C[C@@H]1C[C@](c2ccc(Cl)cc2)([C@H](N)C(=O)N[C@H]2CCCC[C@@H]2CC[C@H]2CN[C@@H]3CCCS(=O)(=O)N2C3)C[C@H](C)O1 [Example 170, (2S)-2-amino-2-[(2R,4r,6S)-4-(4-chlorophenyl)-2,6-dimethyltetrahydro-2H-pyran-4-yl]-N-[(1S,2R)-2-{2-[(6R,9S)-2,2-dioxido-2-thia-1,7-diazabicyclo[4.3.1]dec-9-yl]ethyl}cyclohexyl]ethanamide]	230
CO[C@H](C(C)C)[C@H](c1ccc(F)cc1)[C@H](N)C(=O)Nc1cccc(F)c1CCC1CN[C@@H]2CCCS(=O)(=O)N1C2 (stereo partly drawn) [Example 88, (βR)-N-(2-{2-[(6R)-2,2-dioxido-2-thia-1,7-diazabicyclo[4.3.1]dec-9-yl]ethyl)-3-fluorophenyl)-4-fluoro-β-[(1R)-1-methoxy-2-methylpropyl]-L-phenylalaninamide]	91
COC(=O)N[C@H](C(=O)Nc1cccc(F)c1CC[C@H]1CN[C@@H]2CCCS(=O)(=O)N1C2)[C@@H](c1ccc(F)cc1)C1C[C@@H](C)O[C@H](C)C1 (stereo partly drawn) [Example 112, methyl [(1S,2R)-2-[(2R,6R)-2,6-dimethyltetrahydro-2H-pyran-4-yl]-1-[(2-{2-[(6R,9S)-2,2-dioxido-2-thia-1,7-diazabicyclo[4.3.1]dec-9-yl]ethyl}-3-fluorophenyl)carbamoyl]-2-(4-fluorophenyl)ethyl]carbamate]	42
COC(=O)N[C@H](C(=O)Nc1cccc(F)c1CCC1CNC2CCCS(=O)(=O)N1C2)[C@@H](c1ccc(Cl)cc1)c1ccc(OC)nc1 (stereo partly drawn) [Example 47, methyl [(1S,2S)-2-(4-chlorophenyl)-1-({2-[2-(2,2-dioxido-2-thia-1,7-diazabicyclo[4.3.1]dec-9-yl)ethyl]-3-fluorophenyl}carbamoyl)-2-(6-methoxypyridin-3-yl)ethyl]carbamate]	18
COC(=O)N[C@H](C(=O)Nc1cccc(F)c1CC[C@H]1CN[C@@H]2CCCS(=O)(=O)N1C2)[C@@H](c1ccc(Cl)cc1)C1CCC(C(F)(F)F)OC1 (stereo partly drawn) [Example 273, methyl {(1S,2R)-2-(4-chlorophenyl)-1-[(2-{2-[(6R,9S)-2,2-dioxido-2-thia-1,7-diazabicyclo[4.3.1]dec-9-yl]ethyl}-3-fluorophenyl)carbamoyl]-2-[6-(trifluoromethyl)tetrahydro-2H-pyran-3-yl]ethyl}carbamate]	14
N[C@H](C(=O)Nc1cc(F)cc(F)c1CC[C@H]1CN[C@@H]2CCCS(=O)(=O)N1C2)[C@@H](c1ccc(Cl)cc1)C1CCOCC1 [Example 143, (βR)-4-chloro-N-(2-{2-[(6R,9S)-2,2-dioxido-2-thia-1,7-diazabicyclo[4.3.1]dec-9-yl]ethyl}-3,5-difluorophenyl)-β-(tetrahydro-2H-pyran-4-yl)-L-phenylalaninamide]	77
Cn1nc([C@H](c2ccc(Cl)c(F)c2)[C@H](N)C(=O)Nc2cncc(F)c2CC[C@H]2CN[C@@H]3CCCS(=O)(=O)N2C3)cc1C(F)(F)F [Example 266, (βR)-4-chloro-N-(4-{2-[(6R,9S)-2,2-dioxido-2-thia-1,7-diazabicyclo[4.3.1]dec-9-yl]ethyl}-5-fluoropyridin-3-yl)-3-fluoro-β-[1-methyl-5-(trifluoromethyl)-1H-pyrazol-3-yl]-L-phenylalaninamide]	11
N[C@H](C(=O)Nc1cccc(F)c1CC[C@H]1CN[C@@H]2CCCS(=O)(=O)N1C2)[C@@H](c1ccc(F)cc1)C1CCCOC1 (stereo partly drawn) [Example 214, (βR)-N-(2-{2-[(6R,9S)-2,2-dioxido-2-thia-1,7-diazabicyclo[4.3.1]dec-9-yl]ethyl}-3-fluorophenyl)-4-fluoro-β-(tetrahydro-2H-pyran-3-yl)-L-phenylalaninamide]	18
CC1(C)CC([C@H](c2ccc(Cl)cc2)[C@H](NC(=O)C(C)(C)N)C(=O)N[C@H]2CCC[C@@H]2CC[C@H]2CN[C@@H]3CCCS(=O)(=O)N2C3)CCO1 (stereo partly drawn) [Example 237, 2-methylalanyl-(βR)-4-chloro-β-(2,2-dimethyltetrahydro-2H-pyran-4-yl)-N-[(1S,2R)-2-{2-[(6R,9S)-2,2-dioxido-2-thia-1,7-diazabicyclo[4.3.1]dec-9-yl]ethyl}cyclopentyl]-L-phenylalaninamide]	150
COc1ccc([C@H](c2ccc(Cl)cc2)[C@H](N)C(=O)N[C@H]2CCCC[C@@H]2CC[C@H]2CN[C@@H]3CCCS(=O)(=O)N2C3)cn1 [Example 155, (βS)-4-chloro-N-[(1S,2R)-2-{2-[(6R,9S)-2,2-dioxido-2-thia-1,7-diazabicyclo[4.3.1]dec-9-yl]ethyl}cyclohexyl]-β-(6-methoxypyridin-3-yl)-L-phenylalaninamide]	600
COC(=O)N[C@H](C(=O)Nc1cccc(F)c1CC[C@H]1CN[C@@H]2CCCS(=O)(=O)N1C2)[C@@H](c1ccc(Cl)cc1)[C@H]1CC[C@H](OC2CC2)CC1 [Example 257, methyl {(1S,2R)-2-(4-chlorophenyl)-2-[(1r,4R)-4-(cyclopropyloxy)cyclohexyl]-1-[(2-{2-[(6R,9S)-2,2-dioxido-2-thia-1,7-diazabicyclo[4.3.1]dec-9-yl]ethyl}-3-fluorophenyl)carbamoyl]ethyl}carbamate]	5.6
N[C@H](C(=O)Nc1cccc(F)c1CCC1CNC2CCCS(=O)(=O)N1C2)[C@@H](c1ccc(F)cc1)c1ccc(C2CC2)cc1 (stereo partly drawn) [Example 59, (βR)-4-cyclopropyl-N-{2-[2-(2,2-dioxido-2-thia-1,7-diazabicyclo[4.3.1]dec-9-yl)ethyl]-3-fluorophenyl}-β-(4-fluorophenyl)-L-phenylalaninamide]	16
COc1ccc([C@H](c2ccc(F)c(F)c2)[C@H](N)C(=O)Nc2cccc(F)c2CCC2CNC3CCCS(=O)(=O)N2C3)cn1 (stereo partly drawn) [Example 66, (βS)-N-{2-[2-(2,2-dioxido-2-thia-1,7-diazabicyclo[4.3.1]dec-9-yl)ethyl]-3-fluorophenyl}-3,4-difluoro-β-(6-methoxypyridin-3-yl)-L-phenylalaninamide]	8.2
COC(=O)N[C@H](C(=O)Nc1cccc(F)c1CC[C@H]1CN[C@@H]2CCCS(=O)(=O)N1C2)C(c1ccc(F)cc1)[C@H]1C[C@@H](C)O[C@@H](C)C1 (stereo partly drawn) [Example 83, methyl [(1S)-2-[(2R,4r,6S)-2,6-dimethyltetrahydro-2H-pyran-4-yl]-1-[(2-{2-[(6R,9S)-2,2-dioxido-2-thia-1,7-diazabicyclo[4.3.1]dec-9-yl]ethyl}-3-fluorophenyl)carbamoyl]-2-(4-fluorophenyl)ethyl]carbamate]	8.2
C[C@@H]1C[C@H]([C@H](c2ccc(F)cc2)[C@H](N)C(=O)N[C@H]2CCCC[C@@H]2CC[C@H]2CN[C@@H]3CCCS(=O)(=O)N2C3)C[C@H](C)O1 [Example 149, (βR)-β-[(2R,4r,6S)-2,6-dimelhyltclrahydro-2H-pyran-4-yl]-N-[(1S,2R)-2-{2-[(6R,9S)-2,2-dioxido-2-thia-1,7-diazabicyclo[4.3.1]dec-9-yl]ethyl}cyclohexyl]-4-fluoro-L-phenylalaninamide]	97

Same assay, conditions: inflection point (IP) of viral growth inhibition; MT4-GFP cells infected with HIV-1 H9IIIB; 50% normal human serum; mean of at least two independent experiments; read-out: Cell Based IP (50% NHS)

Compound	EC50 [nM]
COC(=O)N[C@H](C(=O)Nc1cccc(F)c1CC[C@H]1CN[C@@H]2CCCS(=O)(=O)N1C2)[C@@H](c1ccc(Cl)cc1)C1C[C@@H](C)O[C@@H](C)C1 (stereo partly drawn) [Example 120, methyl {(1S,2R)-2-(4-chlorophenyl)-2-[(2R,4r,6S)-2,6-dimethyltetrahydro-2H-pyran-4-yl]-1-[(2-{2-[(6R,9S)-2,2-dioxido-2-thia-1,7-diazabicyclo[4.3.1]dec-9-yl]ethyl}-3-fluorophenyl)carbamoyl]ethyl}carbamate]	6.2

Reference: US10138255B2, “Piperazine derivatives as HIV protease inhibitors” (Merck Sharp & Dohme Corp., priority 2014, dated 2018)
